Like-named read-outs stand apart in the source and are kept apart here.
What was measured:
[1] = test system: symmetric dimethylation of arginine (SDMA) of PRMT5 substrates in MCF-7 cells; test: PRMT5 Cell Target Engagement (TE) Assay; assay type: cell-based; settings: treated for 3 days, nuclear SDMA by high content imaging, top concentration 10000 nM
Excerpt: The PRMT5 TE assay is a biomarker assay for identifying compounds that inhibit symmetric dimethylation of arginine (SDMA) of PRMT5 substrates. The following substrates have been reported for PRMT5: histone H2A and H4 R3, Histone H3 R2, Histone H3 R8, spliceosome Sm proteins, ribosomal protein RPS10, p53, FEN1, nudeoplasmin, nucleolin, EGFR and EBNA. The assay will focus on detecting symmetrically dimethylated nuclear proteins using high content imaging technology. Detection of the expression of symmetrically dimethylated nuclear proteins is through a mixture of primary rabbit monoclonal antibodies to SDMA (CST 13222), which in turn recognized by an Alexafluor 488 dye-conjugated anti-rabbit IgG secondary antibody. The IN Cell Analyzer 2200 or Opera-Phenix measures nuclear Alexafluor 488 fluorescent dye intensity that is directly related to the level of expression of symmetrically dimethylated nuclear proteins at the single cell level. Nuclear AF488 dye intensities are compared to the mean value for DMSO treated cells (MIN) to report percent of inhibition for each compound-treated well.
In this assay, the cell potency (EC50) of each compound was determined from a ten point (1:3 serial dilution; top compound concentration of 10000 nM) titration curve using the following outlined procedure. Each well of a BD falcon collagen coated black/clear bottom 384-well plate was seeded with 4000 MCF-7 cells in 30 μl media and allowed to attach for 5 h. Media is ATCC-formulated Eagle's Minimum Essential Medium, Catalog No. 30-2003. To make the complete growth medium, the following components were added to the base medium: 0.01 mg/ml human recombinant insulin; fetal bovine serum to a final concentration of 10%. Additional 30 μl of media containing 2× compounds were added to each well. Cells were treated for 3 days in 37° C. CO2 incubator. On day 3, cells were fixed with Cytofix, permeablized with 0.4% Triton-X-100/Cytofix, and washed with D-PBS without Ca/Mg. Cells were blocked with Licor Odessey blocking reagent for 1 h at room temperature, followed by incubation with anti-SDMA (1:1000) antibody at 4° C. overnight. 1° antibody was removed, followed by three washings with DPBS without Ca/Mg and 0.05% Tween20. Hoechst (5 μg/ml), Cell Mask deep stain (1:2000) and Alexa488-conjugated goat anti-rabbit IgG (2 μg/mL) was added for 1 hour at room temperature. A final washing step (three washes) was performed before sealing plate for imaging on In Cell Analyzer 2200 or Opera-Phenix. Images from analyzer were uploaded to Columbus (at WP or BOS) for image analysis. IC50 values were determined by 4 parameters robust fit of percent fluorescence units vs. (Logic) compound concentrations.

[2] = molecular target: T1, PRMT5-MEP50 enzyme complex (Homo sapiens, UniProt O14744); test: PRMT5-MEP50 Enzyme Methylation Assay; assay type: biochemical
T1 construct: 1.25 nM of Full-length (FL)-PRMT5-MEP50 enzyme complex; made in house; host or cells: baculovirus-transfected Sf21 cells
Protocol: PRMT5-MEP50 biochemical assay is a direct measurement of the methylation activity of the enzyme complex on a short peptide substrate derived from the N-terminus of H4 histone. Methylation experiment is performed with recombinant PRMT5-MEP50 protein complex. The assessment of inhibitory effect of small molecules is measured by tire effectiveness of the compounds to inhibit tins reaction (EC50).
In this assay, the potency (EC50) of each compound was determined from a twenty-point (1:2 serial dilution; top compound concentration of 100000 nM) titration curve using the following outlined procedure. To each well of a white ProxiPlus 384 well-plate, 100 nL of compound (1% DMSO in final assay volume of 10 μL) was dispensed, followed by the addition of 8 μL of 1× assay buffer (50 mM Bicine pH 8.0, 1 mM DTT, 0.004% Tween20, 0.01% BSA) containing 1.25 nM of Full-length (FL)-PRMT5-MEP50 enzyme complex (recombinant proteins from baculovirus-transfected Sf21 cells: FL-PRMT5; MW=[…] and FL-MEP50; MW=38614) and 1 μL of 150 μM S-(5′-Adenosyl)-L-Methionine Chloride (SAM). Plates were sealed and placed in a 37° C. humidified chamber for a 60 minutes pre-incubation with compound. Subsequently, each reaction was initiated by the addition of 1 μL 1× assay buffer containing 750 nM biotinylated H4R3(Mel) peptide. The final reaction in each well of 10 μL consists of 1.0 nM PRMT5-MEP50, 75 nM biotinylated-peptide, and […] SAM. Methylation reactions were allowed to proceed for 150 minutes in a sealed plate at 37° C. Reactions were immediately quenched by the addition of 1 μL of 5% formic acid. Plates were then frozen and shipped to SAMDITM Tech Inc. to determine the percent conversion from H4R3(Mel) to H4R3(Me2). Dose-response curves were generated by plotting percent effect (% product conversion; Y-axis) vs. Log 10 compound concentrations (X-axis). EC50 values were determined by non-linear regression according to models for either sigmoidal (4 parameters) or biphasic (7 parameters) dose-response curves.

[3] = single EC50 from 4 parameters single site sigmoidal model, or first EC50 of 7 parameters biphasic model, 1.0 nM PRMT5-MEP50, H4R3(Me1) peptide, SAM, read-out: Enzyme Methylation Assay (EC50 or EC50_1)
[4] = second EC50 of 7 parameters biphasic model, read-out: Enzyme Methylation Assay (EC50_2)

T1 sequence (O14744 whole entry): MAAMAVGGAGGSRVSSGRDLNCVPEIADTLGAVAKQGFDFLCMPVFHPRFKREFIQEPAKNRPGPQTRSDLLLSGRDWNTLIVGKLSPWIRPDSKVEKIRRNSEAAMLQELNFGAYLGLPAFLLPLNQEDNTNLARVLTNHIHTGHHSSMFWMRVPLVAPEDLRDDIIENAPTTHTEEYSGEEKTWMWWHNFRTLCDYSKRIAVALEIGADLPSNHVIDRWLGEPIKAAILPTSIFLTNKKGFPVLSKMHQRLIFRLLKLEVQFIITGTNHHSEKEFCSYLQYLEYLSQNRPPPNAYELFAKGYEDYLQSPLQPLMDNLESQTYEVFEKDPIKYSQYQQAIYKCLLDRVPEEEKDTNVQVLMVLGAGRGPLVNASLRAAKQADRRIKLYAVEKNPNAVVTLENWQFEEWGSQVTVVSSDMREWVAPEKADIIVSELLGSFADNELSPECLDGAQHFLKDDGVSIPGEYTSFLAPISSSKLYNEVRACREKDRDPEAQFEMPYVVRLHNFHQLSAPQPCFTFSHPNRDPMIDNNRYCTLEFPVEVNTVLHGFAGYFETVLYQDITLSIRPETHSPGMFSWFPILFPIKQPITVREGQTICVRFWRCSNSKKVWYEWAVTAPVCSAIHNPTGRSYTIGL
T1 sequence (Q9BQA1 whole entry partner): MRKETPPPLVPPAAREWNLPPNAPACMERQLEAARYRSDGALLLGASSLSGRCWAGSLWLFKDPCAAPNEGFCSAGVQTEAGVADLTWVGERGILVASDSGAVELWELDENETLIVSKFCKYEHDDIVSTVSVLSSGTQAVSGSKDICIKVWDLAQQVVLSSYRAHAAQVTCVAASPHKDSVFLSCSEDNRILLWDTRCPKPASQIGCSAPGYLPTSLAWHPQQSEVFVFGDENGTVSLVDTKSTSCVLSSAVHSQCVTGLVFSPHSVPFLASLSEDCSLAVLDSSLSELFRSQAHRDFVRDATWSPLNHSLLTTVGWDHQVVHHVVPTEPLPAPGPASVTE

| SMILES | EC50 ([1]; Homo sapiens, MCF7, 72 h) | EC50 [2, 3] | EC50 [1] | EC50 [2, 4] |
| --- | --- | --- | --- | --- |
| Nc1nc2cc(OC[C@H]3S[C@@H](n4ccc5c(N)ncnc54)[C@H](O)[C@@H]3O)ccc2cc1Br [Example 1, (2R,3S,4R,5R)-2-(((2-amino-3-bromoquinolin-7-yl)oxy)methyl)-5-(4-amino-7H-pyrrolo[2,3-d]pyrimidin-7-yl)tetrahydrothiophene-3,4-diol] | 208 nM | 0.3 nM | – | 76.7 nM |
| Nc1ncnc2c1ccn2[C@@H]1S[C@H](COc2ccc3ccc(NCC4CC4)nc3c2)[C@@H](O)[C@H]1O [Example 4, 7-(5-O-{2-[(cyclopropylmethyl)amino]quinolin-7-yl}-4-thio-beta-D-ribofuranosyl)-7H-pyrrolo[2,3-d]pyrimidin-4-amine] | 50.5 nM | 1.2 nM | – | 569 nM |
| C[C@]1(COc2ccc3cc(Br)c(N)nc3c2)S[C@@H](n2ccc3c(Cl)ncnc32)[C@H](O)[C@@H]1O [Example 6, (2R,3S,4R,5R)-2-(((2-amino-3-bromoquinolin-7-yl)oxy)methyl)-5-(4-chloro-7H-pyrrolo[2,3-d]pyrimidin-7-yl)-2-methyltetrahydrothiophene-3,4-diol] | 1130 nM | 9.8 nM | – | – |
| CC1(COc2ccc3cc(Br)c(N)nc3c2)SC(n2ccc3c(N)ncnc32)C(O)C1O [Example 7, (2R,3R,4R,5R)-2-(((2-amino-3-bromoquinolin-7-yl)oxy)methyl-5-(4-amino-7H-pyrrolo[2,3-d]pyrimidin-7-yl)-2-methyltetrahydrothiophene-3,4-diol] | 122 nM | 2.5 nM | – | 531 nM |
| COc1ncnc2c1ccn2[C@@H]1S[C@H](COc2ccc3ccc(NCC4CC4)nc3c2)[C@@H](O)[C@H]1O [Example 8, (2R,3S,4R,5R)-2-(((2-((cyclopropylmethyl)amino)quinolin-7-yl)oxy)methyl)-5-(4-methoxy-7H-pyrrolo[2,3-d]pyrimidin-7-yl)tetrahydrothiophene-3,4-diol] | 3710 nM | 38300 nM | – | – |
| Cc1ncnc2c1ccn2[C@@H]1S[C@H](COc2ccc3ccc(NCC4CC4)nc3c2)[C@@H](O)[C@H]1O [Example 9, (2R,3S,4R,5R)-2-(((2-((cyclopropylmethyl)amino)quinolin-7-yl)oxy)methyl)-5-(4-methyl-7H-pyrrolo[2,3-d]pyrimidin-7-yl)tetrahydrothiophene-3,4-diol] | 58.4 nM | 14 nM | – | 2540 nM |
| COc1ncnc2c1ccn2[C@@H]1S[C@H](COc2ccc3ccc(N)nc3c2)[C@@H](O)[C@H]1O [Example 10, (2R,3S,4R,5R)-2-(((2-aminoquinolin-7-yl)oxy)methyl)-5-(4-methoxy-7H-pyrrolo[2,3-d]pyrimidin-7yl)tetrahydrothiophene-3,4-diol] | 6020 nM | 19.5 nM | – | 16200 nM |
| Nc1ccc2ccc(OC[C@H]3S[C@@H](n4ccc5c(N)ncnc54)[C@H](O)[C@@H]3O)cc2n1 [Example 11, (2R,3R,4S,5R)-2-(4-amino-7H-pyrrolo[2,3-d]pyrimidin-7-yl)-5-(((2-aminoquinolin-7-yl)oxy)methyl)tetrahydrothiophene-3,4-diol] | 87.1 nM | 0.7 nM | – | 55 nM |

More lines, now with the values ahead:

| EC50 ([1]; Homo sapiens, MCF7, 72 h) | EC50 [2, 3] | EC50 [1] | EC50 [2, 4] | SMILES |
| --- | --- | --- | --- | --- |
| 1.4 nM | 0.7 nM | – | – | Cc1cc2ccc(CC[C@H]3S[C@@H](n4ccc5c(C)ncnc54)[C@H](O)[C@@H]3O)cc2nc1N (single isomer, unassigned) [Example 28] |
| 0.9 nM | 0.6 nM | – | – | Cc1cc2ccc(CC[C@@H]3S[C@@H](n4ccc5c(C)ncnc54)[C@H](O)[C@@H]3O)cc2nc1N (single isomer, unassigned) [Example 29] |
| – | 21.9 nM | 2440 nM | – | Cc1ncnc2c1ccn2[C@@H]1S[C@@H](CCc2ccc3cc4c(nc3c2)NC(C)C4)[C@@H](O)[C@H]1O (single isomer, unassigned) [Example 39, (2S,3S,4R,5R)-2-(2-((R or S)-2-methyl-2,3-dihydro-1H-pyrrolo[2,3-b]quinolin-7-yl)ethyl)-5-(4-methyl-7H-pyrrolo[2,3-d]pyrimidin-7-yl)tetrahydrothiophene-3,4-diol] |
| – | 57.9 nM | – | – | Cc1ncnc2c1ccn2[C@@H]1S[C@@H](CCc2ccc3cc4c(nc3c2)NC(C)C4)[C@@H](O)[C@H]1O (single isomer, unassigned) [Example 40, (2S,3S,4R,5R)-2-(2-((S or R)-2-methyl-2,3-dihydro-1H-pyrrolo[2,3-b]quinolin-7-yl)ethyl)-5-(4-methyl-7H-pyrrolo[2,3-d]pyrimidin-7-yl)tetrahydrothiophene-3,4-diol] |
| – | 47.7 nM | 55 nM | – | Cc1ncnc2c1ccn2[C@@H]1SC(CCc2ccc3ccc(NCC(F)F)nc3c2)[C@@H](O)[C@H]1O (stereo in doubt) [Example 27, (2S,3S,4R,5R)-2-(2-{2-[(2,2-difluoroethyl)amino]quinolin-7-yl}ethyl)-5-(4-methyl-7H-pyrrolo[2,3-d]pyrimidin-7-yl)tetrahydrothiophene-3,4-diol] |
| 112 nM | 2.2 nM | – | 200 nM | Nc1nc2cc(OC[C@H]3S[C@@H](n4ccc5c(N)ncnc54)[C@H](O)[C@@H]3O)ccc2cc1Cl [Example 2, 7-[5-O-(2-amino-3-chloroquinolin-7-yl)-4-thio-beta-D-ribofuranosyl]-7H-pyrrolo[2,3-d]pyrimidin-4-amine] |
| 596 nM | 6 nM | – | 902 nM | Nc1nc2cc(OC[C@H]3S[C@@H](n4ccc5c(N)ncnc54)[C@H](O)[C@@H]3O)ccc2cc1F [Example 3, 7-[5-O-(2-amino-3-fluoroquinolin-7-yl)-4-thio-beta-D-ribofuranosyl]-7H-pyrrolo[2,3-d]pyrimidin-4-amine] |
| ≥ 10000 nM | 26.2 nM | – | – | Nc1nc2cc(OC[C@H]3S[C@@H](n4ccc5c(Cl)ncnc54)[C@H](O)[C@@H]3O)ccc2cc1Cl [Example 5] |
| 1.3 nM | 0.7 nM | – | – | Nc1nc2cc(CC[C@H]3S[C@@H](n4ccc5c(N)ncnc54)[C@H](O)[C@@H]3O)ccc2cc1Br [Example 12, (2R,3S,4R,5R)-2-(2-(2amino-3bromoquinolin-7-yl)ethyl)-5-(4-amino-7H-pyrrolo[2,3-d]pyrimidin-7-yl)tetrahydrothiophene-3,4-diol] |
| 3.2 nM | 0.3 nM | – | – | Nc1nc2cc(CC[C@@H]3S[C@@H](n4ccc5c(N)ncnc54)[C@H](O)[C@@H]3O)ccc2cc1Br [Example 13, (2S,3S,4R,5R)-2-(2-(2-amino-3-bromoquinolin-7-yl)ethyl)-5-(4-amino-7H-pyrrolo[2,3-d]pyrimidin-7-yl)tetrahydrothiophene-3,4-diol] |

Reference: US20210277009A1, “PRMT5 INHIBITORS” (Merck Sharp & Dohme Corp., priority 2018, published 2021)
